Assay results published in patent publication US20050215498A1, “Method for the protection of endothelial and epithclial cells during chemotherapy” (priority 2002, published 2005).
Where two headings read alike, the source gives them in different places.

Tests used:
[1] = manufacturers's instructions, cited from earlier work
[2] = system: human microvascular endothelial cells (HMEC); format: cell-based
Procedure: All cell culture reagents have been purchased by Gibco BRL (Karlsruhe, Germany) unless stated otherwise. 2-Fluoroadenine 9-beta-D-arabinofuranoside (F-Ara) was obtained from Sigma, Deisenhofen, Germany, Defibrotide vials were obtained from Prociclide™, Crinos, Como, Italy.
(§1) An established method for detecting apoptosis in human endothelial cells was performed as previously described^20 using flow cytometry (FACScan™ and CellQuest™ software, Becton Dickinson, Heidelberg, Germany). Endothelial and epithelial cells were either left untreated or incubated with F-Ara in descending concentrations (range: 10 μg/mL to 0.1 μg/mL) in the presence or absence of Defibrotide for 48 hours. Afterwards, cells were washed in PBS/10% FCS and stained with the necrosis detecting dye propidium iodide (PI, 0.2 μg/mL, Sigma, Deisenhofen, Germany). Apoptotic cells were identified by a PI-negative staining and by a characteristic side scatter image distinct from that of non-apoptotic cells. At least three experiments per cell type have been performed.
(§2) An alternative method for the detection of apoptosis used microscopic analysis of DNA fluorescence labeled cells. 1×10 ^5/plate endothelial cells were seeded in 35 mm petri dishes (Nunc, Wiesbaden, Germany). These cells were treated as given above and subsequently fixed with Methanol/Acetone (1:1) for 2 minutes, washed once in PBS and stained with 4,6-Diamidino-2-phenylindole (DAPI) (0.5 μg/mL, Sigma, Deisenhofen, Germany), dissolved in 20% Glycerin/PBS. Samples were mounted and subjected to microscopic analysis.
In order to assess the influence of F-Ara on the viability of cultured human endothelial cells, HMEC were incubated with descending pharmacologically relevant concentrations (10 μg/mL to 0.1 μg/mL) of 2-Fluoroadenine 9-beta-D-arabinofuranoside as the metabolized form of fludarabine. […] After 48 hours of incubation HMEC were subjected to apoptosis assays using the detection of cellular granularity of propidium iodide negative cells (side scatter (SSC) image in flow cytometry) and microscopic analyses of DAPI-stained cells, respectively.
In order to exclude unspecific artifical extracellular interaction of F-Ara and Defibrotide in vitro HMEC were pretreated with Defibrotide for 1 hour and subsequently, after 3 washing steps, incubated with F-Ara for another 48 hours and vice versa.

[3] = system: SW 480 gut epithelial cell line; experiment: Flow cytometric apoptosis analysis in SW 480; format: cell-based; details: F-Ara 10 μg/mL, 48 hours
Procedure: as §1
(§3) Skin, the gastrointestinal tract (GIT) and most likely the lung are among the primary targets of GvHD. Therefore, it was reasonable to test the influence of F-Ara on cell lines derived from these organs. Cells from keratinocyte (HaCaT), GIT (SW 480), alveolar (A549) and bronchial epithelial (BEAS-2B) cell lines as well as primary bronchial epithelial cells were incubated with F-Ara (10 μg/mL) as given for FIGS. 1 and 2 and assayed in flow cytometric apoptosis analyses 48 hours post treatment. […] Again, the protective potential of Defibrotide (100 μg/mL) was assessed.

[4] = system: BEAS-2B bronchial epithelial cell line and primary bronchial epithelial cells; experiment: Flow cytometric apoptosis analysis in bronchial epithelial cells; format: cell-based; details: F-Ara 10 μg/mL, 48 hours
Procedure: as §1, §3

[5] = system: primary acute myeloid leukemia (AML) cells; experiment: Propidium iodide staining (vitality) of primary AML cells; format: cell-based, human; details: 48 hours
Procedure: (§4) F-Ara: 10 μg/mL. D: 100 μg/mL. A: Propidium iodide staining of primary acute myeloid leukemia (AML) cells derived from a patient in blast crisis (70% blasts of total PBMC count). Results are given in mean % vitality of three independent experiments. *: p=0.008 of Control- versus F-Ara-treated AML cells. B: Flow cytometric analysis of the SSC-image of PI-negative PBMC. Shown is one representative out of five independent experiments with different blood donors.
Next to its desirable protective capacity for endothelial and epithelial cells against F-Ara induced apoptosis it was important to investigate whether Defibrotide would also interfere with the anti-leukaemic properties of F-Ara. To address this question, primary peripheral blood derived acute myeloid leukaemic (AML) cells with a blast amount of 70% were thawed, kept in culture for 24 hours and subsequently treated with F-Ara in the presence or absence of Defibrotide for another 48 hours. […] However, F-Ara induced cell death in up to 80% of the cells. […] This could be observed after as early as 24 hours of incubation. […] We next asked whether Defibrotide might modulate the effect of F-Ara against normal haematopoetic cells and performed apoptosis assays (SSC-image) with PBMC from normal human blood donors. […]

[6] = system: PBMC from normal human blood donors; experiment: Apoptosis assay (SSC-image) with PBMC; format: cell-based
Procedure: as §4
as §1, with “performed. […]” for “performed.”

[7] = system: ICAM-1 expression on HMEC; experiment: Flow cytometric analysis of ICAM-1 expression on HMEC; format: cell-based, human
Procedure: (§5) Cell surface expression of ICAM-1 (Becton Dickinson/Pharmingen, Heidelberg, Germany) and MHC class I (w6/32, hybridoma supernatant, ATCC, Manassas, Va., USA) molecules on HMEC was assessed by the indirect immunofluorescence technique and subsequent flow cytometry using the FACScan™ flow cytometer and the Cell-Quest™ analysis program (Becton Dickinson, Heidelberg, Germany). Endothelial cells were treated as given and after incubation harvested with trypsin/EDTA (Gibco), washed once in cold PBS/10% FCS and incubated 1 hour on ice with 5 μg/mL of anti-adhesion molecule MoAbs. Cells were washed again and incubated with a goat anti-mouse IgG-FITC conjugated antibody F(ab)2 fragment (Dako, Hamburg, Germany) for 45 minutes on ice. Cells were then washed in PBS/10% FCS and subjected to analysis. Viability of the cells was determined by concurrent propidium iodide (0.2 μg/mL, Sigma, Deisenhofen, Germany) staining. Omitting of the first antibody served as a negative control to detect unspecific fluorescence.
Based on previous observations that pretransplant conditioning not only damages, but also leads to proinflammatory activation of endothelial cells in terms of adhesion molecule induction,^15 we next investigated the expression of ICAM-1 under the influence of F-Ara. […] We next asked whether Defibrotide would also be functional as an antagonist of F-Ara in this experimental setting. HMEC were treated with F-Ara as given and incubated in the presence or absence of descending concentrations of Defibrotide.

[8] = system: MHC class I molecules on HMEC; experiment: Flow cytometric analysis of MHC class I on HMEC; format: cell-based, human; details: for induction of mean fluorescence intensity of MHC class I: 24 hours
Procedure: as §5
(§6) Since a proinflammatory activation of target cells is often associated with increased expression of major histocompatibility antigens (MHC) class I and II, we did further flow cytometric analyses for these antigens after incubation with F-Ara in various concentrations for 24 hours.

[9] = system: MHC class II on HMEC; details: F-Ara various concentrations, 24 hours, data not shown
Procedure: as §5, §6

[10] = system: HMEC as target cells for allogeneic CTL; experiment: 51Cr release assay, lysis of HMEC by allogeneic PBMC / CD8+ CTL; format: cell-based, human
Description: Peripheral blood mononuclear cells (PBMC) were derived from heparinized (Novo Nordisk, Mainz, Germany) blood of healthy human volunteers or buffy coats from the Bavarian Red Cross according to a standard protocol using Ficoll hypaque (Pharmacia, Freiburg, Germany) density gradient centrifugation. Cells were then stimulated in a ratio of 1:1 and 2:1 with irradiated (20 Gy) HMEC for 7 days in the presence of Interleukin 2 (50 U/mL) and 10% human AB serum (Sigma, Deisenhofen, Germany). Alternatively, PBMC were selected for CD8+ T cells and natural killer (NK) cells using cell isolation kits according to the manufactuer's instructions (MACS™, Miltenyi Bio-tech, Bergisch-Gladbach, Germany) based on the deletion of non CD8+ and non NK cells, respectively. Stimulation of the selected cells was identical to that of whole PBMC cultures, except for NK cells which were stimulated for only 3 days.
T cell- or NK-cell mediated cytotoxicity was assessed according to a well established protocol,^23 using a 4h ^51Cr radioisotope assay. HMEC that had either been left untreated or incubated with F-Ara (10μg/mL) overnight were used as target cells, to be labeled 0.4 mCi Na2^51CrO4 for 2 hours. After 3 washing steps, target cells were adjusted to 10^4 cells/mL and coincubated with PBMC, CD8+ or NK effector cells at descending effector to target ratios for another 4 hours. Supernatants were transfered to dry scintillation plates and counted in a γ-counter (all from Canberra Packard, Darmstadt, Germany). Autologous (effector) B-Lymphoblastoid cell lines (B-LCL) and K562 as NK sensitive cells were taken as additional control targets. The percentage of specific lysis was calculated as: [(experimental release−spontaneous release)/(maximal release−spontaneous release)]×100. Spontaneous release in all experiments was always below 20%. […]

[11] = system: HMEC as target cells for allogeneic NK cells; experiment: 51Cr release assay, lysis of HMEC by allogeneic NK cells; format: cell-based, human; details: F-Ara 10 μg/mL, 24 hours
Procedure: T cell- or NK-cell mediated cytotoxicity was assessed according to a well established protocol,^23 using a 4h ^51Cr radioisotope assay. HMEC that had either been left untreated or incubated with F-Ara (10μg/mL) overnight were used as target cells, to be labeled 0.4 mCi Na2^51CrO4 for 2 hours. After 3 washing steps, target cells were adjusted to 10^4 cells/mL and coincubated with PBMC, CD8+ or NK effector cells at descending effector to target ratios for another 4 hours. Supernatants were transfered to dry scintillation plates and counted in a γ-counter (all from Canberra Packard, Darmstadt, Germany). […] The percentage of specific lysis was calculated as: [(experimental release−spontaneous release)/(maximal release−spontaneous release)]×100.

[12] = system: endothelial cells; experiment: Radiation induced endothelial cell death; format: cell-based; details: data not shown
Description: Since in many pre-transplant protocols fludarabine is used in combination with ionizing radiation it was important to test whether these two compounds would cooperate in affecting endothelial cells.

[13] = system: HaCaT human keratinocyte cell line; experiment: Flow cytometric apoptosis analysis in HaCaT; format: cell-based; details: Defibrotide alone, data not shown
Procedure: as §1
as §2, with “Samples were mounted and subjected to microscopic analysis.” left out
(§7) Skin, the gastrointestinal tract (GIT) and most likely the lung are among the primary targets of GvHD. […] Again, the protective potential of Defibrotide (100 μg/mL) was assessed.

[14] = system: A549 alveolar epithelial cells; experiment: Flow cytometric apoptosis analysis in A549; format: cell-based, human; details: Defibrotide alone, data not shown
Procedure: as §1
as §2, with “Samples were mounted and subjected to microscopic analysis.” left out
as §7

Nc1nc(F)nc2c1ncn2[C@@H]1O[C@H](COP(=O)(O)OP(=O)(O)OP(=O)(O)O)[C@@H](O)[C@@H]1O [fludarabine triphosphate]
median intracellular level in target cells ([1]; concentration representing 20 μM): 5.8 µg/mL
median intracellular level in target cells [1]: 20 µM

Nc1nc(F)nc2c1ncn2[C@@H]1O[C@H](CO)[C@@H](O)[C@@H]1O [F-Ara, 2-fluoro-9-β-D-arabinofuranosyladenine]
apoptosis in HMEC ([2]; F-Ara 1 μg/mL, 48 hours): no longer effective
apoptosis in HMEC ([2]; F-Ara 10 and 5 μg/mL, 48 hours): causes apoptosis
apoptosis in HMEC ([2]; after 24h, data not shown): already detectable
apoptosis induction [3]: resistant
apoptosis induction [4]: resistant
cell death of AML cells ([5]; F-Ara 10 μg/mL, almost 50% died spontaneously): up to 80%
% apoptotic cells ([6]; F-Ara 10 μg/mL, untreated control 5.1%): 40.1%
concentrations effective in inducing ICAM-1 ([7]; 24 hours): ≥ 1 µg/mL
ICAM-1 expression on HMEC ([7]; F-Ara, 24 hours of incubation): significantly enhances expression
induction of mean fluorescence intensity of MHC class I ([8]; F-Ara 5 μg/mL): 1.3 fold
induction of mean fluorescence intensity of MHC class I ([8]; F-Ara 10 μg/mL): 1.5 fold
MHC class II expression [9]: remained unchanged
lysis of F-Ara-treated HMEC by CD8+ CTL versus control HMEC ([10]; CD8+ selected effectors): significantly higher
antigenicity of HMEC towards allogeneic PBMC ([10]; F-Ara (1 μg/mL) treated targets, all E/T ratios tested): increased the antigenicity
allogenicity of HMEC towards NK cells [11]: significantly downregulated
enhancement of radiation induced cell death ([12]; combination with ionizing radiation): could not find any enhancement

Defibrotide
protection of F-Ara induced cell death ([2]; Defibrotide 100 to 0.1 μg/mL with F-Ara 10 μg/mL, 48 hours): dose-dependent protection
endothelial cell viability ([2]; Defibrotide alone, 48 hours): did not influence endothelial cell viability
protection from F-Ara induced apoptosis ([2]; pretreatment with Defibrotide 1 hour, washing, then F-Ara 48 hours): sufficient to protect cells
endothelial programmed cell death ([2]; pretreatment with F-Ara 1 hour, subsequent incubation with Defibrotide): did not lead to endothelial programmed cell death
number of apoptotic cells [13]: did not influence the number of apoptotic cells
number of apoptotic cells [14]: did not influence the number of apoptotic cells
protection of AML cells from F-Ara mediated toxicity ([5]; Defibrotide 100 μg/mL with F-Ara 10 μg/mL): not able to protect
% apoptotic cells ([6]; F-Ara 10 μg/mL with Defibrotide 100 μg/mL): 43.1%
F-Ara induced ICAM-1 expression ([7]; Defibrotide 100 μg/mL and 10 μg/mL with F-Ara 10 μg/mL): antagonized
ICAM-1 expression ([7]; Defibrotide alone, every concentration tested, data not shown): remained unchanged
MHC class I molecules, F-Ara versus F-Ara+D treated HMEC ([8]; data not shown): significant downregulation
specific lysis of HMEC by CD8+ CTL ([10]; pretreatment of target HMEC with F-Ara and Defibrotide (F-Ara+D)): downregulated specific lysis even below control levels
protection against radiation induced endothelial cell damage [12]: not protective
